Values joined by “and” are separate entries in the source; they are usually repeats but may differ in a detail not shown here. Identical values can stand only once. “Also recorded” adds a separate entry of the source.

Test [1] is described as follows: DPPH radical-scavenging assay. The following applies: 100 μM DPPH in ethanol, 30 min at room temperature in the dark, absorbance 517 nm; mean ± SD. The protocol: The total antioxidant capacity of the synthesized compounds was determined using the DPPH radical as a reagent, according to the procedure described by Chang et al. with some modifications. Briefly, 100 μL of 100 μM solution of DDPH in ethanol was added to 10 μL of the synthesized compounds at different concentrations (500, 250, 125, 62.5, 31.25, 15.62, and 7.81 μM). […] The percentage of the inhibition of DPPH oxidation was calculated according to the following formula: DPPHscavengingeffect%=Acontrol−Asample/Acontrol×100 where Acontrol means the absorbance of the control sample and Asample means the absorbance of the standard or tested compound.
On the technique in general: The DPPH test is a chemical assay of radical scavenging.

The nature of test [2]: Ferric-reducing antioxidant power (FRAP) assay. The following applies: trolox equivalent; 45 min at 37 °C, absorbance 595 nm. Here is the method:
The antioxidant capacity of the synthesized compounds was evaluated by the reduction of the ferric 2,4,6-tripyridyl-s-triazine complex (Fe^3+-TPTZ) to the ferrous form (Fe^2+-TPTZ) at low pH, which causes a colored ferrous–tripyridyltriazine complex to form, according to the procedure described by Benzie et al., with some modifications. Briefly, 20 µL of the tested compound was mixed with 130 µL FRAP reagent (buffer acetate pH = 3.6, 10 mM TPTZ, 40 mM HCl, 20 mM FeCl3/H2O ratio 10:1:1) and then incubated for 45 min at 37 °C. FRAP values were obtained by comparing the absorbance change at 595 nm in test reaction mixtures with those containing ferrous ions in known concentrations using trolox as a calibration curve (concentrations between 7.8 and 500 µM). The results were expressed as μM of trolox equivalent (TE). The absorbance was measured using a Tecan Infinite 200 PRO plate reader.

Test [3] deals with mushroom TYR. Kind of test: Inhibition of diphenolase activity of mushroom TYR (L-DOPA substrate). The format is biochemical, Agaricus bisporus. The conditions noted are these: for IC50: diphenolase activity, L-DOPA 2 mM, pH 6.8, 37 °C, read-out: IC50 against mushroom TYR catalyzing oxidation of L-DOPA; for Inhibitory activity on TYR (in words): discussion of Table 1, mushroom TYR. Here is the method:
The inhibitory effects of the thiosemicarbazone–CBD–aldehyde derivatives on the diphenolase activity of mushroom TYR were assessed by UV-Vis spectrometry using L-DOPA as the substrate.
A potassium phosphate buffer (80 μL, 50 mM, pH 6.8), 20 μL of tyrosinase (100 units/mL), and 2 μL of the tested compounds (10–150 μM) dissolved in dimethyl sulfoxide (DMSO) were added to 96-well plates. After incubation at 37 °C for 20 min, 100 μL of L-DOPA (2 mM) was added. The absorbance changes at 475 nm (ε = 3.7 × 10^3 M^−1cm^−1) were immediately monitored for 20 min at 37 °C using a Tecan Infinite 200 PRO plate reader. […] Dose–response curves were generated by conducting assays with increasing concentrations of each inhibitor. To ensure measurement accuracy, all experiments were performed in triplicate, with the average value used as the final result.

Test [4] has as its system mushroom TYR. Kind of test: Monophenolase inhibition assay of mushroom TYR (L-tyrosine substrate), lag time. The format is biochemical, Agaricus bisporus. The following applies: oxidation of L-tyrosine by mushroom TYR; for Lag time: compound 20 μM, without inhibitor 4.40 min; for Lag phase: control 264 s. The protocol: Additionally, the impact of the newly synthesized compounds on the initial stage of TYR enzymatic activity was evaluated using L-tyrosine as the substrate. This initial phase is characterized by a lag period and an increased reaction rate.
[…] After incubation at 37 °C for 20 min, 100 μL of L-tyrosine (2 mM) was added. The absorbance changes at 475 nm were immediately monitored for 40 min at 37 °C using a Tecan Infinite 200 PRO plate reader. The lag time was determined from the plot of absorbance at 475 nm versus time (min) by extrapolating the linear portion of the curve to the x-axis.

The subject of test [5] is mushroom TYR. Kind of test: Inhibition kinetics on diphenolase activity of TYR (Lineweaver–Burk). The format is biochemical, Agaricus bisporus. The following applies: Lineweaver–Burk plot, L-DOPA 0.1–1 mM, compound 2.5–30 μM. Here is the method:
The inhibition mechanism of compound 5 on the diphenolase activity of TYR was further studied. The inhibition type was determined by the classical Lineweaver–Burk plot based on the inhibitory results of 5.
To evaluate the inhibition kinetics of tyrosinase, assays were conducted in phosphate buffer (50 mM, pH 6.8) using L-DOPA as the substrate (0.1–1 mM) and tyrosinase ([…]) in the presence of varying concentrations of compound 5 (2.5–30 μM) under the same conditions as described in Section 4.4. Absorbance changes at 475 nm were continuously monitored for 40 min at 37 °C using a Tecan Infinite 200 PRO plate reader. Initial reaction velocities (V0) were determined for each inhibitor concentration, and kinetic parameters (Kₘ and Vₘₐₓ) were analyzed using Lineweaver–Burk and Michaelis–Menten plots to determine the type of inhibition. All experiments were performed in triplicate to ensure reproducibility.

Test [6] deals with mushroom TYR. Kind of test: Fluorescence quenching assay of TYR. The format is binding, Agaricus bisporus. The following applies: 310 K; for kq (bimolecular quenching rate constant): from Ksv with τ0 = 10^−8 s; for ka (binding constant): static quenching, double-log equation; for Ksv (Stern–Volmer quenching constant): λex 280 nm, pH 6.8. Here is the method: The fluorescence quenching spectra were recorded with an excitation wavelength (λex = 280 nm) and excitation and emission slit widths of 5 nm. A potassium phosphate buffer (80 μL, 50 mM, pH 6.8), 20 μL of tyrosinase (100 units/mL), and 2 μL of the tested compounds (10–100 μM) dissolved in DMSO were added to 96-well plates. After incubating at 37 °C for 20 min, the fluorescence spectrum was recorded at an emission range from 315 to 415 nm. Fluorescence quenching is described by the Stern–Volmer equation [69]: F0/F=1+Kqτ0[Q]=1+ksv[Q]
For the static quenching interaction, the binding affinity (Ka) and the number of binding sites (n) between the inhibitor and TYR were determined using the following calculations:(1) logF0−F/F=nlogQ+logka where F and F0 represent the fluorescence intensities of protein in the presence and absence of a quencher, respectively. [Q] is the quencher concentration. Ksv is the Stern–Volmer quenching constant, and kq is the rate constant of the bimolecular quenching process. τ0 is the average fluorescence lifetime of the fluorophores in the absence of the quencher, with a typical value of 10^−8 s for biological macromolecules.

For the molecule `C=C(C)[C@@H]1CCC(C)=C[C@H]1c1c(O)cc(CCCCC)c(/C=N/NC(N)=S)c1O` [Compound 5, 3-thiosemicarbazone–CBD–aldehyde], in test [1], the midpoint of inhibition, the IC50, lay at 53.5 ± 5.29 µM. In addition, in test [2], the FRAP value was found to be 1257 ± 6.78 μM TE. At mushroom TYR [3], the IC50 (usually the concentration needed to halve the response being measured) worked out at 27.7 ± 1.84 µM. Besides, in the test with mushroom TYR [4], the Lag time is 9.89 min and 9.89 ± 0.66 min; the Lag phase is 593 s. The Inhibition type entry with mushroom TYR [5] is recorded as “mixed-type inhibition; also recorded: reversible, mixed-type inhibitor”. In the test with mushroom TYR [6], the “kq (bimolecular quenching rate constant)” value is 7.61e+11 M⁻¹ s⁻¹, the “ka (binding constant)” value turned out to be 12100 M⁻¹ and the “Ksv (Stern–Volmer quenching constant)” value stood at 7610 M⁻¹.

Molecule `C=C(C)[C@@H]1CCC(C)=C[C@H]1c1c(O)cc(CCCCC)c(/C=N/NC(=S)N(C)C)c1O` [Compound 7, 3-(4,4-dimethyl-3-thiosemicarbazone)–CBD–aldehyde] gave an IC50 in test [1] of 116 ± 5.05 µM. Moreover, the FRAP value in test [2] stood at 981.9 ± 9.66 μM TE. The IC50 on mushroom TYR [3] was found to be 28.1 ± 1.82 µM. Moreover, in the test on mushroom TYR [4], the Lag time was 6.19 min and 6.19 ± 0.27 min; the Lag phase amounted to 371 s. Moreover, in the test with mushroom TYR [6], the “kq (bimolecular quenching rate constant)” value came to 1.38e+12 M⁻¹ s⁻¹, the “ka (binding constant)” value was 5200 M⁻¹ and the “Ksv (Stern–Volmer quenching constant)” value came out at 13800 M⁻¹.

`Cc1c(C)c2c(c(C)c1O)CCC(C)(C(=O)O)O2` (stereo not shown) [trolox, reference compound] yielded an IC50 in test [1] of 54.6 ± 3.45 µM.

With `C=C(C)[C@@H]1CCC(C)=C[C@H]1c1c(O)cc(CCCCC)c(C=O)c1O` [Compound 2], the IC50 on mushroom TYR [3] is over 100 µM.

For the molecule `C=C(C)[C@@H]1CCC(C)=C[C@H]1c1c(O)cc(CCCCC)c(/C=N/NC(N)=O)c1O` [Compound 3], at mushroom TYR [3], the IC50 is over 100 µM and the “Inhibitory activity on TYR (in words)” value is reported as “did not exhibit any inhibitory activity”.

As to `C=C(C)[C@@H]1CCC(C)=C[C@H]1c1c(O)cc(CCCCC)c(/C=N/NC(=S)NC)c1O` [Compound 6, 3-(4-methyl-3-thiosemicarbazone)–CBD–aldehyde], inhibition in test [1] was half-maximal at 63.7 ± 3.29 µM (IC50). Moreover, at mushroom TYR [3], the IC50 was found to be 29.4 ± 2.22 µM. In the test on mushroom TYR [4], the Lag time was 6.06 min and 6.06 ± 0.11 min; the Lag phase amounted to 363 s. Besides, in the test on mushroom TYR [6], the “kq (bimolecular quenching rate constant)” value came out at 9.98e+11 M⁻¹ s⁻¹, the “ka (binding constant)” value is 8700 M⁻¹ and the “Ksv (Stern–Volmer quenching constant)” value worked out at 9980 M⁻¹.

For the molecule `C=C(C)[C@@H]1CCC(C)=C[C@H]1c1c(O)cc(CCCCC)c(/C=N/NC(=N)N)c1O` [Compound 4], on mushroom TYR [3], the IC50 was over 100 µM and the “Inhibitory activity on TYR (in words)” value is “did not exhibit any inhibitory activity”.

As for `C=C(C)[C@@H]1CCC(C)=C[C@H]1c1c(OC)cc(CCCCC)c(/C=N/NC(N)=S)c1OC` [Compound 9, 3-thiosemicarbazone–CBD–dimethylether], half-maximal inhibition in test [1] (IC50) required 316 ± 16 µM. Also, in test [2], the FRAP value is 431.5 ± 13.51 μM TE. Moreover, on mushroom TYR [3], the IC50 was found to be 22.4 ± 2.9 µM. In addition, in the test on mushroom TYR [4], the Lag time is 6.67 min and 6.67 ± 0.17 min; the Lag phase came out at 400 s. In addition, in the test on mushroom TYR [6], the “kq (bimolecular quenching rate constant)” value was found to be 1.3e+12 M⁻¹ s⁻¹, the “ka (binding constant)” value came to 13100 M⁻¹ and the “Ksv (Stern–Volmer quenching constant)” value turned out to be 13000 M⁻¹.

Take `C=C(C)[C@@H]1CCC(C)=C[C@H]1c1c(O)cc(CCCCC)c(/C=N/NC(=S)Nc2ccccc2)c1O` [Compound 8, 3-(4-phenyl-3-thiosemicarbazone)–CBD–aldehyde]: it took 57.6 ± 1.71 µM to reach half-maximal inhibition in test [1] (IC50). In addition, the FRAP value in test [2] turned out to be 931.7 ± 8.97 μM TE. Besides, the IC50 at mushroom TYR [3] was found to be 42.2 ± 3.52 µM. Further, in the test with mushroom TYR [4], the Lag time was 4.58 min and 4.58 ± 0.04 min; the Lag phase is 274 s. In addition, in the test with mushroom TYR [6], the “kq (bimolecular quenching rate constant)” value came to 4.68e+12 M⁻¹ s⁻¹, the “ka (binding constant)” value is 25500 M⁻¹ and the “Ksv (Stern–Volmer quenching constant)” value stood at 46800 M⁻¹.

On to `C=C(C)[C@@H]1CCC(C)=C[C@H]1c1c(O)cc(CCCCC)cc1O` [Compound 1, Cannabidiol], for which the values for the IC50 (in test [1]; on mushroom TYR [3]) were 506.1 ± 4.67 µM and over 100 µM, respectively. Further, in test [2], the FRAP value worked out at 282.1 ± 5.68 μM TE.

Source of the values: article PMC11944387, “Cannabidiol-Based Thiosemicarbazones: A Preliminary Study Evaluating Their Anti-Tyrosinase Properties” (Molecules, 2025).
